Values quoted from earlier work as cited in PubChem BioAssay AID1259410 (Chemical Carcinogenesis Research Information System (CCRIS), 2018).

Tested on: rodent tumor promotion studies, tumor incidence
Test: CCRIS tumor promotion studies

## CCCCCCCCCCCCCC(=O)O[C@@H]1[C@@H](C)[C@@]2(O)[C@@H](C=C(CO)C[C@]3(O)C(=O)C(C)=C[C@@H]23)[C@@H]2C(C)(C)[C@]12OC(C)=O
Carcinogen: 7,12-DIMETHYLBENZ(A)ANTHRACENE, Doses [Carcinogen]: IG TO MOTHERS, Route [Carcinogen]: GAVAGE, Route [Promoter]: DERMAL, Species: MOUSE, Strain/Sex: NMRI/MALE,FEMALE
  outcome: integumentary system (skin); forestomach; stomach; liver; lung; colon; kidney; r
Carcinogen: 7,12-DIMETHYLBENZ(A)ANTHRACENE, Doses [Carcinogen]: IG, Route [Carcinogen]: GAVAGE, Route [Promoter]: GAVAGE, Species: MOUSE, Strain/Sex: FEMALE
  outcome: forestomach
Carcinogen: 7,12-DIMETHYLBENZ(A)ANTHRACENE, Doses [Carcinogen]: TOP, Route [Carcinogen]: DERMAL, Route [Promoter]: DERMAL, Species: MOUSE, Strain/Sex: MALE,FEMALE
  outcome: integumentary system (skin)
Carcinogen: 7,12-DIMETHYLBENZ(A)ANTHRACENE, Doses [Carcinogen]: TRANS-PLACENTAL, Route [Carcinogen]: TRANS-PLACENTAL, Route [Promoter]: DERMAL, Species: MOUSE, Strain/Sex: NMRI/MALE,FEMALE
  outcome: integumentary system (skin); lung; liver
Carcinogen: 7,12-DIMETHYLBENZO[K]FLUORANTHENE, 95741-56-3, Doses [Carcinogen]: 4 UMOL (TOTAL DOSE) ADMINISTERED IN 10 SUBDOSES 1/2 D, Doses [Promoter]: 2.5 UG IN 0.1 ML ACETONE 3/WK FOR 30 WK BEGINNING 10 D POST CARCINOGEN TREATMENT (STUDY DURATION: 33 WK), Route [Carcinogen]: DERMAL, Route [Promoter]: DERMAL, Species: MOUSE, Strain/Sex: CRL:CD-1/FEMALE
  outcome: skin: tumor
Carcinogen: 7,12-DIMETHYLBENZ[A]ANTHRACENE-3,4-DIOL, 71964-72-2, Doses [Carcinogen]: 4, 10 NMOL ONCE, Doses [Promoter]: 0, 3.4 NMOL 2/WK FOR 19 WK BEGINNING 2 WK POST CARCINOGEN DOSE (STUDY DURATION: 21 WK), Route [Carcinogen]: DERMAL, Route [Promoter]: DERMAL, Species: MOUSE, Strain/Sex: SENCAR/FEMALE
  outcome: skin: papilloma
Carcinogen: 7,12-DIMETHYLBENZ[A]ANTHRACENE, 57-97-6, Doses [Carcinogen]: 1 NMOL IN 100 µL ACETONE, Doses [Promoter]: 2.16 NMOL IN 100 µL ACETONE 2/WK FOR 27 WK BEGINNING 1 WK POST CARCINOGEN DOSE (STUDY DURATION: 28 WK), Route [Carcinogen]: DERMAL, Route [Promoter]: DERMAL, Species: MOUSE, Strain/Sex: SENCAR/FEMALE
  outcome: skin: tumor
Carcinogen: 7,12-DIMETHYLBENZ[A]ANTHRACENE, 57-97-6, Doses [Carcinogen]: 4, 20, 100 NMOL IN 100 µL ACETONE ONCE, Doses [Carcinogen]: 4, 20, 100 NMOL IN 100 µL ACETONE ONCE, Doses [Promoter]: 3.24 NMOL/100 µL ACETONE 2/WK BEGINNING 2 WK POST CARCINOGEN DOSE AND CONTINUING FOR 24 WK (STUDY DURATION: 27 WK), Route [Carcinogen]: DERMAL, Route [Promoter]: DERMAL, Species: MOUSE, Strain/Sex: SENCAR/FEMALE
  outcome: skin: tumor
Carcinogen: 7,12-DIMETHYLBENZ[A]ANTHRACENE, 57-97-6, Doses [Carcinogen]: 10 NMOL APPLIED TO BACK ONCE, Doses [Promoter]: 1.5 NMOL 2/WK FOR 19 WK BEGINNING 1 WK POST CARCINOGEN DOSE (STUDY DURATION: 40 WK), Route [Carcinogen]: DERMAL, Route [Promoter]: DERMAL, Species: MOUSE, Strain/Sex: HRA/SKH/FEMALE
  outcome: skin: papilloma
Carcinogen: 7,12-DIMETHYLBENZ[A]ANTHRACENE, 57-97-6, Doses [Carcinogen]: 20 NMOL IN ACETONE ONCE, Doses [Promoter]: 0, 0.2 ML OF 10 UG/ML SOLUTION IN ACETONE 2/WK FOR 51 WK (STUDY DURATION: 52 WK), Route [Carcinogen]: DERMAL, Route [Promoter]: DERMAL, Species: MOUSE, Strain/Sex: SENCAR/FEMALE
  outcome: skin: squamous cell carcinoma
Carcinogen: 7,12-DIMETHYLBENZ[A]ANTHRACENE, 57-97-6, Doses [Carcinogen]: 20 NMOL ONCE, Doses [Promoter]: 0, 1, 2, 5 UG IN 200 µL ACETONE 2/WK FOR 23 WK BEGINNING 1 WK POST CARCINOGEN DOSE (STUDY DURATION: 24 WK), Doses [Promoter]: 0, 1, 2, 5 UG IN 200 µL ACETONE 2/WK FOR 23 WK BEGINNING 1 WK POST CARCINOGEN DOSE (STUDY DURATION: 24 WK), Route [Carcinogen]: DERMAL, Route [Promoter]: DERMAL, Species: MOUSE, Strain/Sex: 129/SVEV/FEMALE
  outcome: skin: tumor
Carcinogen: 7,12-DIMETHYLBENZ[A]ANTHRACENE, 57-97-6, Doses [Carcinogen]: 100 NMOL ONCE, Doses [Promoter]: 0, 1, 2, 5 UG IN 200 µL ACETONE 2/WK FOR 23 WK BEGINNING 1 WK POST CARCINOGEN DOSE (STUDY DURATION: 24 WK), Doses [Promoter]: 0, 1, 2, 5 UG IN 200 µL ACETONE 2/WK FOR 23 WK BEGINNING 1 WK POST CARCINOGEN DOSE (STUDY DURATION: 24 WK), Route [Carcinogen]: DERMAL, Route [Promoter]: DERMAL, Species: MOUSE, Strain/Sex: 129/SVEV/FEMALE
  outcome: skin: tumor
Carcinogen: 7,12-DIMETHYLBENZ[A]ANTHRACENE, 57-97-6, Doses [Carcinogen]: 100 NMOL ONCE, Doses [Promoter]: 10 NMOL 2/WK FOR 24 WK BEGINNING 1 WK POST CARCINOGEN DOSE (STUDY DURATION: 25 WK), Route [Carcinogen]: DERMAL, Route [Promoter]: DERMAL, Species: NMRI/FEMALE G, Strain/Sex: NMRI/FEMALE
  outcome: skin: tumor
Carcinogen: 7,12-DIMETHYLBENZ[A]ANTHRACENE, 57-97-6, Doses [Carcinogen]: 200 NMOL IN 100 µL ACETONE ONCE, Doses [Promoter]: 0, 5 NMOL IN 100 µL ACETONE 2/WK FOR 20 WK BEGINNING 1 WK POST CARCINOGEN DOSE (STUDY DURATION: 21 WK), Route [Carcinogen]: DERMAL, Route [Promoter]: DERMAL, Species: MOUSE, Strain/Sex: CD-1/FEMALE
  outcome: skin: papilloma
Carcinogen: 7-FLUOROBENZO[B]FLUORANTHENE, 89883-22-7, Doses [Carcinogen]: 10, 40, 120, 400 NMOL (TOTAL DOSE) APPLIED 1/2 D FOR 10 SUBDOSES, Doses [Carcinogen]: 10, 40, 120, 400 NMOL (TOTAL DOSE) APPLIED 1/2 D FOR 10 SUBDOSES, Doses [Promoter]: 0, 2.5 UG IN 100 µL ACETONE 3/WK FOR 20 WK BEGINNING 10 D POST CARCINOGEN TREATMENT (STUDY DURATION: 22 WK), Route [Carcinogen]: DERMAL, Route [Promoter]: DERMAL, Species: MOUSE, Strain/Sex: CRL:CD-1/FEMALE
  outcome: skin: tumor
Carcinogen: 7-METHYLBENZ[A]ANTHRACENE-3,4-DIOL, 175614-82-1, Doses [Carcinogen]: 200, 400 NMOL ONCE, Doses [Promoter]: 0, 3.4 NMOL 2/WK FOR 19 WK BEGINNING 2 WK POST CARCINOGEN DOSE (STUDY DURATION: 21 WK), Route [Carcinogen]: DERMAL, Route [Promoter]: DERMAL, Species: MOUSE, Strain/Sex: SENCAR/FEMALE
  outcome: skin: papilloma
Carcinogen: 8-METHYLBENZO[K]FLUORANTHENE, 95741-54-1, Doses [Carcinogen]: 4 UMOL (TOTAL DOSE) ADMINISTERED IN 10 SUBDOSES 1/2 D, Doses [Promoter]: 2.5 UG IN 0.1 ML ACETONE 3/WK FOR 30 WK BEGINNING 10 D POST CARCINOGEN TREATMENT (STUDY DURATION: 33 WK), Route [Carcinogen]: DERMAL, Route [Promoter]: DERMAL, Species: MOUSE, Strain/Sex: CRL:CD-1/FEMALE
  outcome: skin: tumor
Carcinogen: 9-FLUORO-7,12-DIMETHYLBENZ[A]ANTHRACENE-3,4-DIOL, 175614-88-7, Doses [Carcinogen]: 4, 10 NMOL ONCE, Doses [Promoter]: 0, 3.4 NMOL 2/WK FOR 19 WK BEGINNING 2 WK POST CARCINOGEN DOSE (STUDY DURATION: 21 WK), Route [Carcinogen]: DERMAL, Route [Promoter]: DERMAL, Species: MOUSE, Strain/Sex: SENCAR/FEMALE
  outcome: skin: papilloma
Carcinogen: 9-FLUORO-7-METHYLBENZ[A]ANTHRACENE-3,4-DIOL, 175614-83-2, Doses [Carcinogen]: 200, 400 NMOL ONCE, Doses [Promoter]: 0, 3.4 NMOL 2/WK FOR 19 WK BEGINNING 2 WK POST CARCINOGEN DOSE (STUDY DURATION: 21 WK), Route [Carcinogen]: DERMAL, Route [Promoter]: DERMAL, Species: MOUSE, Strain/Sex: SENCAR/FEMALE
  outcome: skin: papilloma
Carcinogen: 9-FLUORO-12-METHYLBENZ[A]ANTHRACENE-3,4-DIOL, 175614-86-5, Doses [Carcinogen]: 200, 400 NMOL ONCE, Doses [Promoter]: 0, 3.4 NMOL 2/WK FOR 19 WK BEGINNING 2 WK POST CARCINOGEN DOSE (STUDY DURATION: 21 WK), Route [Carcinogen]: DERMAL, Route [Promoter]: DERMAL, Species: MOUSE, Strain/Sex: SENCAR/FEMALE
  outcome: skin: papilloma
Carcinogen: 9-METHYLBENZO[K]FLUORANTHENE, 95741-55-2, Doses [Carcinogen]: 4 UMOL (TOTAL DOSE) ADMINISTERED IN 10 SUBDOSES 1/2 D, Doses [Promoter]: 2.5 UG IN 0.1 ML ACETONE 3/WK FOR 30 WK BEGINNING 10 D POST CARCINOGEN TREATMENT (STUDY DURATION: 33 WK), Route [Carcinogen]: DERMAL, Route [Promoter]: DERMAL, Species: MOUSE, Strain/Sex: CRL:CD-1/FEMALE
  outcome: skin: tumor
Carcinogen: 10-FLUORO-7,12-DIMETHYLBENZ[A]ANTHRACENE-3,4-DIOL, 175614-89-8, Doses [Carcinogen]: 4, 10 NMOL ONCE, Doses [Promoter]: 0, 3.4 NMOL 2/WK FOR 19 WK BEGINNING 2 WK POST CARCINOGEN DOSE (STUDY DURATION: 21 WK), Route [Carcinogen]: DERMAL, Route [Promoter]: DERMAL, Species: MOUSE, Strain/Sex: SENCAR/FEMALE
  outcome: skin: papilloma
Carcinogen: 10-FLUORO-7-METHYLBENZ[A]ANTHRACENE-3,4-DIOL, 175614-84-3, Doses [Carcinogen]: 200, 400 NMOL ONCE, Doses [Promoter]: 0, 3.4 NMOL 2/WK FOR 19 WK BEGINNING 2 WK POST CARCINOGEN DOSE (STUDY DURATION: 21 WK), Route [Carcinogen]: DERMAL, Route [Promoter]: DERMAL, Species: MOUSE, Strain/Sex: SENCAR/FEMALE
  outcome: skin: papilloma
Carcinogen: 10-FLUORO-12-METHYLBENZ[A]ANTHRACENE-3,4-DIOL, 175614-87-6, Doses [Carcinogen]: 200, 400 NMOL ONCE, Doses [Promoter]: 0, 3.4 NMOL 2/WK FOR 19 WK BEGINNING 2 WK POST CARCINOGEN DOSE (STUDY DURATION: 21 WK), Route [Carcinogen]: DERMAL, Route [Promoter]: DERMAL, Species: MOUSE, Strain/Sex: SENCAR/FEMALE
  outcome: skin: papilloma
Carcinogen: 10-FLUOROBENZO[J]FLUORANTHENE, 129286-37-9, Doses [Carcinogen]: 1, 2 UMOL (TOTAL DOSE) ADMINISTERED IN SUBDOSES 1/2 D, Doses [Promoter]: 2.5 UG IN 100 µL ACETONE 3/WK FOR 20 WK BEGINNING 10 D POST LAST CARCINOGEN DOSE (STUDY DURATION: 27 WK), Route [Carcinogen]: DERMAL, Route [Promoter]: DERMAL, Species: MOUSE, Strain/Sex: CD-1/FEMALE
  outcome: skin: tumor
Carcinogen: 12-METHYLBENZ[A]ANTHRACENE-3,4-DIOL, 175614-85-4, Doses [Carcinogen]: 200, 400 NMOL ONCE, Doses [Promoter]: 0, 3.4 NMOL 2/WK FOR 19 WK BEGINNING 2 WK POST CARCINOGEN DOSE (STUDY DURATION: 21 WK), Route [Carcinogen]: DERMAL, Route [Promoter]: DERMAL, Species: MOUSE, Strain/Sex: SENCAR/FEMALE
  outcome: skin: papilloma
